Measured values taken from PMC8167039, “A Comparative Study of Human and Zebrafish Pregnane X Receptor Activities of Pesticides and Steroids Using In Vitro Reporter Gene Assays” (Frontiers in Endocrinology, 2021).

Key:
zfPXR [1] = target: T1, zfPXR (Danio rerio, UniProt A5WYG8); test: HG5LN Gal4-zfPXR luciferase reporter gene assay, agonism; format: cell-based, zebrafish
Method: (§1) The cell lines used in this study are listed in Supplementary Table 3 . The HG5LN, HG5LN Gal4-hPXR and HG5LN Gal4-zfPXR cell lines were previously described ([19]). Briefly, HeLa cells stably transfected with the GAL4RE5-βGlobin-Luc-SVNeo plasmid (HG5LN cell line) ([15]). HG5LN cells were stably transfected with the pSG5-GAL4(DBD)-hPXR(LBD)-puro or pSG5-GAL4(DBD)-zfPXR(LBD)-puro plasmids.
(§2) HG5LN cells were cultured in Dulbecco’s Modified Eagle Medium: Nutrient Mixture F-12 (D-MEM/F-12) containing phenol red and 1 g/L glucose and supplemented with 5% fetal bovine serum, 100 units/mL of penicillin and 100 µg/mL of streptomycin supplemented with 1 mg/mL geneticin in a 5% CO2 humidified atmosphere at 37°C. HG5LN GAL4-hPXR and GAL4-zfPXR were cultured in the same culture medium supplemented with 0.5 µg/mL puromycin.
(§3) The ability of chemicals to modulate the hPXR and zfPXR was investigated in HG5LN, HG5LN-hPXR, HG5LN-zfPXR, and ZFL-zfPXR cell lines after exposure to serial dilutions of the compounds and measurement of luciferase activity. […] Briefly, cells were seeded in 96-well white opaque flat bottom microplates at 0.5 10^5 cells per well in culture medium. […] Cells were then exposed to a concentration range of the compounds by using an automated workstation (Biomek 3000, Beckman Coulter). The final concentration of DMSO in the well never exceeds 0.1% (v/v). After 16h of exposure, medium was removed and 50 µL of test medium containing 0.3 mM D-luciferin were added per well. After 5 min, the production of light was assessed in living cells using microplate reader (MicroBeta, PerkinElmer SAS, Courtabœuf, France).
(§4) In the transactivation assay, each compound was tested at various concentrations in three independent experiments at least. For each experiment, tests were performed in quadruplicates for each concentration, and data are expressed by means values with standard deviations. […] This allowed to determine EC50 and IC50 values of tested chemicals.

hPXR = target: T2, hPXR (Homo sapiens, UniProt O75469); test: HG5LN Gal4-hPXR luciferase reporter gene assay, agonism
T2 sequence (O75469 146-433 limits assumed): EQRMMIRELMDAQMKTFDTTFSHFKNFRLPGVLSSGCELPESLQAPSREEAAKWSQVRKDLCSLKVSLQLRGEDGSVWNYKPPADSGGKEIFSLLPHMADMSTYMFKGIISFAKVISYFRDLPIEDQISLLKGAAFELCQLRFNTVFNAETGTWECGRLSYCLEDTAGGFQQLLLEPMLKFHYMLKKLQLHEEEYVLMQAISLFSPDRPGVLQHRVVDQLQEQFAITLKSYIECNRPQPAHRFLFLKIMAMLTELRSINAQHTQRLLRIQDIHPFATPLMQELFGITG
Method: as §1, §2, §3, §4

zfPXR [2] = target: T1, zfPXR; test: cell-based; design: Emax: dose or concentration left out as unconfirmed
Method: as §3, §4

T1 sequence (A5WYG8 entry or part of it): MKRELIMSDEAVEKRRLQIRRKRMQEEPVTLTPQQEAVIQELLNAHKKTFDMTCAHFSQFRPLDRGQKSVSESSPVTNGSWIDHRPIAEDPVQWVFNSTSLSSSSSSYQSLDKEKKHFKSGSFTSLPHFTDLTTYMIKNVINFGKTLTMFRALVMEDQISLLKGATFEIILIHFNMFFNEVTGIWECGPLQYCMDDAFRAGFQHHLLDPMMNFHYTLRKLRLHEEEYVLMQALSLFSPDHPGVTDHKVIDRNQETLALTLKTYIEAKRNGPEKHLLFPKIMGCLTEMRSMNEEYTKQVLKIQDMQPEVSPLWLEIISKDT

For CCC(CC)Nc1c([N+](=O)[O-])cc(C)c(C)c1[N+](=O)[O-] [Pendimethalin], the EC50 (zfPXR [1]) was 0.47 ± 0.1 µM, the EC50 (hPXR) was 3 ± 0.1 µM and the “hPXR agonism Max” value (hPXR) was 91%. The EC50 (zfPXR [2]) was 0.12 ± 0.01 µM and the Emax (zfPXR [2]; read-out: zfPXR agonism Max) was 92%.
With C#C[C@]1(O)CC[C@H]2[C@@H]3CCC4=CCCC[C@@H]4[C@H]3C(=C)C[C@@]21CC [Desogestrel, reference compound] the EC50 (zfPXR [1]; HG5LN-zfPXR cells, 16h exposure, n.a. = not active, read-out: zfPXR agonism EC50) was 0.13 ± 0.01 µM, the “hPXR agonism Max” value (hPXR) was 54% and the EC50 (zfPXR [2]) was 0.07 ± 0.004 µM.
